Test results published in patent US20040077601A1, “Methods and compositions relating to isoleucine boroproline compounds” (Point Therapeutics, Inc., priority 2002, published 2004).

Tests used:
serum DPP-IV = serum DPP-IV (Mus musculus, UniProt P28843); experiment: Serum DPP-IV activity in mice two hours after administration (indicator of bioavailability); format: in vivo; details: 0.2-, 2.0-, 20-, 200-μg doses, subcutaneous injection vs oral gavage, serum two hours later
WEHI 164 tumor cells = experiment: WEHI 164 mouse tumor model (subcutaneous inoculation of 4×10^6 tumor cells); format: in vivo, mice; details: for Tumor sizes, subcutaneous compared to oral: day 20; for Tumor sizes (mean tumor volumes) on day 20 versus saline control: all 3 doses, twice daily day 2 to day 19, n=10; for Incidence of tumor rejection (%): recorded on day 20
Protocol: FIG. 2. Comparison of the anti-tumor activity of Ile-boroPro administered orally or by subcutaneous injection in the WEHI 164 mouse tumor model. Mice were inoculated subcutaneously with 4×10^6 tumor cells and administered Ile-boroPro twice daily from day 2 to day 19 after tumor inoculation, either by oral gavage (open bars) or subcutaneous injection (solid bars). Control mice received saline (hatched bar). The data represent mean tumor volumes±SEM (n=10) were recorded on day 20.
Mice were inoculated subcutaneously with 4×10^6 WEHI 164 tumor cells and administered 2-, 5- or 10-μg doses of Ile-boroPro twice daily from day 2 to […] after tumor inoculation, either by oral gavage or subcutaneous injection. Control mice received saline. […] The greater efficacy of subcutaneous administration was also reflected in the incidence of tumor rejection in mice receiving treatment with the various doses of Ile-boroPro (Table 2). […] It should be noted that tumor rejection was never observed in mice inoculated with WEHI 164 and treated with saline.

chemokine KC = experiment: Serum levels of the chemokine KC by ELISA in mice after administration

Chain of serum DPP-IV (P28843 37-760 limits assumed): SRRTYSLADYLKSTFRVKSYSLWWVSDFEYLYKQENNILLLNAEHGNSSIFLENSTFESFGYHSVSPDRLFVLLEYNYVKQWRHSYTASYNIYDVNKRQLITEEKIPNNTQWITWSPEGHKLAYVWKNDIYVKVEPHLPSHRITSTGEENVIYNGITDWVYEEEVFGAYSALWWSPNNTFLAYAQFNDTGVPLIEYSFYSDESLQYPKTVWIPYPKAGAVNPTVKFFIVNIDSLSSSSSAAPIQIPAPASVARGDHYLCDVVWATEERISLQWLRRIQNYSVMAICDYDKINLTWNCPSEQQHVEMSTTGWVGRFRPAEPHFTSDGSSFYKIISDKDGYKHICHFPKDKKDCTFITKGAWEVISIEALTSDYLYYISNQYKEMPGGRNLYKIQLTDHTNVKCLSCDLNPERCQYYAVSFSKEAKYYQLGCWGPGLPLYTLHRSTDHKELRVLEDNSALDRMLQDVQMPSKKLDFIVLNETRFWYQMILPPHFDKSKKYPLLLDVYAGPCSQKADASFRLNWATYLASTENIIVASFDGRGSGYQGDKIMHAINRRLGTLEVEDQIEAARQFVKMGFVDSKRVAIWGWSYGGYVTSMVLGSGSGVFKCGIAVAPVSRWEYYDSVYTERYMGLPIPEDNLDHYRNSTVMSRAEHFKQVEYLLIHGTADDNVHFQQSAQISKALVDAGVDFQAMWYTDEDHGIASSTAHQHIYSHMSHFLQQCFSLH

## CCC(C)C(N)C(=O)N1CCCC1B(O)O (stereo not shown) [Ile-boroPro]
Serum DPP-IV
  Bioavailability judged from dose response of inhibition of serum DPP-IV, subcutaneous versus oral: more bioavailable
WEHI 164 tumor cells; 2-, 5- or 10-μg doses twice daily
  Suppression of tumor growth, subcutaneous versus oral administration (tumor volumes on day 20): more effective than oral administration in suppressing tumor growth
WEHI 164 tumor cells; 2-μg dose twice daily, P<0.0005
  Tumor sizes, subcutaneous compared to oral: significantly smaller
WEHI 164 tumor cells; 5-μg dose twice daily, P<0.005
  Tumor sizes, subcutaneous compared to oral: significantly smaller
WEHI 164 tumor cells; oral gavage, P<0.05
  Tumor sizes (mean tumor volumes) on day 20 versus saline control: significant reduction in tumor sizes
WEHI 164 tumor cells; oral, 10 μg twice daily day 2 to day 19, 2 separate experiments
  Incidence of tumor rejection (%): caused tumor rejection
WEHI 164 tumor cells; subcutaneous injection, P<0.00005
  Tumor sizes (mean tumor volumes) on day 20 versus saline control: significant reduction in tumor sizes
WEHI 164 tumor cells; subcutaneous, 2 μg twice daily day 2 to day 19, one experiment
  Incidence of tumor rejection (%): 60%
WEHI 164 tumor cells; subcutaneous, 5 μg twice daily day 2 to day 19, one experiment
  Incidence of tumor rejection (%): 70%
Chemokine KC
  Time of maximal increases in serum KC levels after administration: 2 h
